# Like-named read-outs stand apart in the source and are kept apart here. Marks after values point to notes of the source that are not given here.
# Columns and labels:
# [1] = test system: S. aureus ATCC 25923; format: cell-based, Staphylococcus aureus; conditions: for MIC antibiotic alone: S. aureus ATCC 25923, checkerboard, ~10^4 CFU/mL
# Excerpt: (§1) Vancomycin, rifampicin, kanamycin, gentamicin, ampicillin, ciprofloxacin and tetracycline (Sigma-Aldrich) were provided as standard powders by the manufacturers.
# [2] = test system: P. aeruginosa; experiment: Resistance profile of multiresistant clinical isolates; format: cell-based, Pseudomonas aeruginosa; design: key: R: resistant; S: sensitive; I: intermediate
# [3] = test system: S. aureus; experiment: as above; format: cell-based, Staphylococcus aureus; design: key: R: resistant; S: sensitive; I: intermediate
# [4] = test system: K. pneumoniae ATCC 43816; format: cell-based, Klebsiella pneumoniae; conditions: for MIC antibiotic alone: K. pneumoniae ATCC 43816, checkerboard, ~10^4 CFU/mL; for Combinations Odilomycin/antibiotic: Odilomycin concentration: Odilomycin A part of the inhibitory combination with the labelled antibiotic
# Excerpt: as §1
# [5] = test system: S. aureus Smith ATCC 13709; experiment: Acute lethal infection in mice; format: in vivo, ICR mice
# Method: Female ICR mice ordered from Harlan Laboratories (Indianapolis, Ind.) weighing 19-21 g were used in experiments of acute lethal infection. Mice were fully immunocompetent. Infection was induced by inoculating intraperitoneally in mice a bacterial suspension of S. aureus Smith ATCC 13709. The bacterial challenges (ca 5 log10 CFU/mouse) were given suspended in 0.5 mL of 20% hog mucin. […] Mortality was tracked out to 5 days post challenge. Animals that remained surviving at the end of the study were humanely euthanized.
# [6] = test system: P. aeruginosa ATCC 27853; experiment: Acute lethal infection in mice; format: in vivo, BALB/c mice; conditions: P. aeruginosa infection; Tobramycin […] IP
# Method: Female BALB/c mice ordered from Harlan Laboratories (Indianapolis, Ind.) weighing 19-21 g were used in experiments of acute lethal infection. Mice were fully immunocompetent. Infection was induced by inoculating intraperitoneally in mice a bacterial suspension of P. aeruginosa ATCC 27853. The bacterial challenges (8.6 log10 CFU/mouse) were given suspended in 0.1 mL sterile saline. Treatments were administered once 1 hour after challenge via IV injection (Tobramycin was administered via IP injection immediately after challenge) (Table 13). Mortality was tracked out to 2 days post challenge. Animals that remained surviving at the end of the study were humanely euthanized.
# [7] = test system: Staphylococcus aureus; experiment: microbe, parasite or virus in culture; conditions: Staphylococcus aureus
# Method: (§2) The minimal inhibitory concentrations (MIC) were determined according to the Clinical and Laboratory Standards Institute (CLSI) conditions guidelines detailed in Table 7. Assays were performed in triplicate.
# (§3) Preparation of Inocula. Five to 10 well-isolated colonies were picked and resuspended in 3 ml sterile saline. The inoculum was re-suspended by vigorous shaking on a vortex mixer for 15 s. Turbidity was adjusted to McFarland standard 0.5 ([…]). The inoculum was further diluted in the appropriate media (Table 7) to give a final inoculum in each well of ˜2-8×10^5 CFU/ml.
# (§4) Addition of Test Article. Stock solutions of Odilomycin A or comparator were diluted in the appropriate media to give a maximum starting concentration of 50 μg/mL in the assay. 50 μL of medium was dispensed into each well in columns two to 12 of a 96 well plate. 100 μL of the appropriate test compound solution (100 μg/mL) was dispensed into each well in column one. In the case of M. catarrhalis, M. haemolytica and P. multocida these values were doubled (a final assay volume of 200 μL was used). […] Columns 11 and 12 served as positive (no drug or test article, inoculum added), and negative (no drug, test article, or inoculum added) growth controls respectively.
# (§5) Addition of Bacterial Strains. 50 μL of each inoculum suspension was added to the appropriate wells, resulting in a final volume of 100 μL consisting of 50 μL diluted compound or diluents, and 50 μL of inoculum or broth alone.
# [8] = test system: Escherichia coli
# Method: as §2, §3, §4, §5
# [9] = test system: Enterobacter cloacae; conditions: E. cloacae clinical isolate 11370
# Method: as §2, §3, §4, §5
# [10] = test system: Klebsiella pneumoniae
# Method: as §2, §3, §4, §5
# [11] = test system: Pseudomonas aeruginosa; conditions: P. aeruginosa ATCC 27853
# Method: as §2, §3, §4, §5
# [12] = test system: Klebsiella oxytoca; conditions: K. oxytoca clinical isolate NEB9
# Method: as §2, §3, §4, §5
# [13] = P. aeruginosa multiresistant clinical isolate 5618
# [14] = P. aeruginosa multiresistant clinical isolate 35170
# [15] = P. aeruginosa multiresistant clinical isolate 42162
# [16] = P. aeruginosa multiresistant clinical isolate 401681
# [17] = P. aeruginosa multiresistant clinical isolate 512232
# [18] = S. aureus multiresistant clinical isolate 16666
# [19] = S. aureus multiresistant clinical isolate 20364
# [20] = S. aureus multiresistant clinical isolate 20681
# [21] = S. aureus multiresistant clinical isolate 21840
# [22] = S. aureus multiresistant clinical isolate 23305
# [23] = mice, S. aureus 5 log10 CFU/mouse IP, Linezolid 12.5 mg/kg PO at 0 hr, n=6
Compound,MIC antibiotic alone [1],"Susceptibility of isolate to antibacterial (R/S/I) [2, 13]","Susceptibility of isolate to antibacterial (R/S/I) [2, 14]","Susceptibility of isolate to antibacterial (R/S/I) [2, 15]","Susceptibility of isolate to antibacterial (R/S/I) [2, 16]","Susceptibility of isolate to antibacterial (R/S/I) [2, 17]","Susceptibility of isolate to antibacterial (R/S/I) [3, 18]","Susceptibility of isolate to antibacterial (R/S/I) [3, 19]","Susceptibility of isolate to antibacterial (R/S/I) [3, 20]","Susceptibility of isolate to antibacterial (R/S/I) [3, 21]","Susceptibility of isolate to antibacterial (R/S/I) [3, 22]",also measured
CC1(C)S[C@@H]2[C@H](NC(=O)[C@H](N)c3ccccc3)C(=O)N2[C@H]1C(=O)O [Ampicillin],0.15 µg/mL,–,–,–,–,–,–,–,–,–,–,–
C[C@H]1[C@H](NC(=O)/C(=N\OC(C)(C)C(=O)O)c2csc(N)n2)C(=O)N1S(=O)(=O)O [Aztreonam],–,S,R,I,I,R,–,–,–,–,–,–
CO[C@@]1(NC(=O)Cc2cccs2)C(=O)N2C(C(=O)O)=C(COC(N)=O)CS[C@@H]21 [Cefoxitin],–,–,–,–,–,–,R,R,R,S,I,–
"O=C(O)c1cn(C2CC2)c2cc(N3CCNCC3)c(F)cc2c1=O [Ciprofloxacin, ciprofloxacin]",0.31 µg/mL,–,–,–,–,–,–,–,–,–,–,–
CCC[C@@H]1C[C@@H](C(=O)N[C@@H]([C@H]2O[C@H](SC)[C@H](O)[C@@H](O)[C@H]2O)[C@H](C)Cl)N(C)C1 [Clindamycin],–,R,R,R,R,R,R,R,S,S,R,–
CC[C@H]1OC(=O)[C@H](C)[C@@H](O[C@H]2C[C@@](C)(OC)[C@@H](O)[C@H](C)O2)[C@H](C)[C@@H](O[C@@H]2O[C@H](C)C[C@H](N(C)C)[C@H]2O)[C@](C)(O)C[C@@H](C)C(=O)[C@H](C)[C@@H](O)[C@]1(C)O [Erythromycin],–,R,R,R,R,R,R,R,S,S,R,–
C[C@@H](O)[C@H]1C(=O)N2C(C(=O)O)=C(SCCN=CN)C[C@H]12 [Imipenem],–,R,R,R,S,R,–,–,–,–,–,–
NC[C@H]1O[C@H](O[C@H]2[C@H](O)[C@@H](O[C@H]3O[C@H](CO)[C@@H](O)[C@H](N)[C@H]3O)[C@H](N)C[C@@H]2N)[C@H](O)[C@@H](O)[C@@H]1O [Kanamycin],0.62 µg/mL,–,–,–,–,–,–,–,–,–,–,"MIC antibiotic alone [4]: 1.56 µg/mL; Combinations Odilomycin/antibiotic: Odilomycin concentration ([4]; K. pneumoniae ATCC 43816): 6.25 µg/mL; Combinations Odilomycin/antibiotic: antibiotic concentration ([4]; K. pneumoniae ATCC 43816, antibiotic part of the inhibitory combination with Odilomycin A): 0.39 µg/mL"
"CC(=O)NC[C@H]1CN(c2ccc(N3CCOCC3)c(F)c2)C(=O)O1 [Linezolid, reference compound]",–,–,–,–,–,–,S,S,S,S,S,"Survival of all treated mice ([5]; S. aureus infection, linezolid 12.5 mg/kg PO): survived up to 5 days after infection; Animal deaths Day 0 [5, 23]: 0; Animal deaths Day 1 [5, 23]: 0; Animal deaths Day 2 [5, 23]: 0; Animal deaths Day 3 [5, 23]: 0; Animal deaths Day 4 [5, 23]: 0; Animal deaths Day 5 [5, 23]: 0"
CO[C@H]1/C=C/O[C@@]2(C)Oc3c(C)c(O)c4c(O)c(c(/C=N/N5CCN(C)CC5)c(O)c4c3C2=O)NC(=O)/C(C)=C\C=C\[C@H](C)[C@H](O)[C@@H](C)[C@@H](O)[C@@H](C)[C@H](OC(C)=O)[C@@H]1C [Rifampicin],0.012 µg/mL,–,–,–,–,–,–,–,–,–,–,–
CN(C)[C@@H]1C(O)=C(C(N)=O)C(=O)[C@@]2(O)C(O)=C3C(=O)c4c(O)cccc4[C@@](C)(O)[C@H]3C[C@@H]12 [Tetracycline],0.78 µg/mL,–,–,–,–,–,–,–,–,–,–,–
"NC[C@H]1O[C@H](O[C@H]2[C@H](O)[C@@H](O[C@H]3O[C@H](CO)[C@@H](O)[C@H](N)[C@H]3O)[C@H](N)C[C@@H]2N)[C@H](N)C[C@@H]1O [Tobramycin, reference compound]",–,–,–,–,–,–,–,–,–,–,–,Survival of all treated mice [6]: survived up to 5 days after infection
"CN[C@H](CC(C)C)C(=O)N[C@H]1C(=O)N[C@@H](CC(N)=O)C(=O)N[C@H]2C(=O)N[C@H]3C(=O)N[C@H](C(=O)N[C@H](C(=O)O)c4cc(O)cc(O)c4-c4cc3ccc4O)[C@H](O)c3ccc(c(Cl)c3)Oc3cc2cc(c3O[C@@H]2O[C@H](CO)[C@@H](O)[C@H](O)[C@H]2O[C@H]2C[C@](C)(N)[C@H](O)[C@H](C)O2)Oc2ccc(cc2Cl)[C@H]1O [Vancomycin, vancomycin]",0.78 µg/mL,–,–,–,–,–,S,S,S,S,S,MIC ([7]; ATCC13709): 0.78 µg/mL; MIC ([7]; ATCC25923): 0.78 µg/mL; MIC ([7]; ATCCBAA1556 / USA300): 0.78 µg/mL
Gentamicin,0.078 µg/mL,R,R,R,R,R,R,S,S,S,R,"MIC antibiotic alone [4]: 0.39 µg/mL; Combinations Odilomycin/antibiotic: Odilomycin concentration ([4]; K. pneumoniae ATCC 43816): 3.12 µg/mL; Synergy with Odilomycin A ([4]; K. pneumoniae ATCC 43816, labelled antibiotic combined with Odilomycin A): synergistic interaction; Combinations Odilomycin/antibiotic: Odilomycin concentration ([1]; S. aureus ATCC 25923, Odilomycin A part of the inhibitory combination with the labelled antibiotic): 0.19 µg/mL; Combinations Odilomycin/antibiotic: antibiotic concentration ([1]; S. aureus ATCC 25923, antibiotic part of the inhibitory combination with Odilomycin A): 0.039 µg/mL; Synergy with Odilomycin A ([1]; S. aureus ATCC 25923, labelled antibiotic combined with Odilomycin A): synergistic interaction"
polymyxin [reference compound],–,–,–,–,–,–,–,–,–,–,–,MIC ([8]; E. coli ATCC 25922): 0.39^c μg/mL; MIC ([8]; E. coli CTX-M14 clinical isolate AEC7): 0.39^c μg/mL; MIC ([8]; E. coli CTX-M15 clinical isolate MEC23): 0.39^c μg/mL; MIC ([8]; E. coli TEM clinical isolate MEC12): 0.39^c μg/mL; MIC [9]: 0.78^c μg/mL; MIC ([10]; K. pneumoniae ATCC 43816): 0.39^c μg/mL; MIC ([10]; K. pneumoniae KPC clinical isolate 2475): 0.78^c μg/mL; MIC [11]: 0.39^c μg/mL; MIC [12]: 0.39^c μg/mL

# From US9260481B2, “Peptide derivatives as antibiotics” (priority 2011, dated 2016)
